ChEMBL document CHEMBL4804284
The source made the active and inactive calls. The calls are words filed in the database; no cut-off is given here.

Experiments:
[1] = biological target: Serine/threonine-protein kinase 10 (Homo sapiens) (UniProt O94804); assay: Inhibition of DNA-tagged human LOK assessed as percent of control at 50000 nM by qPCR analysis relative to control; set-up: scale not given: the % may be the effect or the level left
[2] = biological target: Mitogen-activated protein kinase 1 (Homo sapiens) (UniProt P28482); assay: Inhibition of DNA-tagged human ERK2 assessed as percent of control at 50000 nM by qPCR analysis relative to control; set-up: scale not given: the % may be the effect or the level left
Chain of Mitogen-activated protein kinase 1 (Homo sapiens) (P28482 whole entry): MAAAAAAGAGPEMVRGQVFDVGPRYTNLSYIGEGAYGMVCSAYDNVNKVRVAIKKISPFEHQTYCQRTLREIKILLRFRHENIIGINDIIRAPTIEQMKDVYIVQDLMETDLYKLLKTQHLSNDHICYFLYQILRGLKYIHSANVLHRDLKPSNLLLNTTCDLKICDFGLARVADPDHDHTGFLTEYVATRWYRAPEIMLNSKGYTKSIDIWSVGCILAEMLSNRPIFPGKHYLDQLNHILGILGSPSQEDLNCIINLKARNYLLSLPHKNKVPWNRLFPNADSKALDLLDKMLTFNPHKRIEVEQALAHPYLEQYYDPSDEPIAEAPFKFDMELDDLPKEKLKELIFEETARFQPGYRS

HEL = assay: Cytotoxicity against human HEL cells at 0.1-100 uM assessed as decrease in cell viability relative to control; format: functional, cell-based
[3] = biological target: Calcium/calmodulin-dependent protein kinase type II subunit delta (Homo sapiens) (UniProt Q13557); assay: Inhibition of DNA-tagged human CAMK2D assessed as percent of control at 50000 nM by qPCR analysis relative to control; set-up: scale not given: the % may be the effect or the level left
[4] = biological target: Megakaryocyte-associated tyrosine-protein kinase (Homo sapiens) (UniProt P42679); assay: Inhibition of DNA-tagged human CTK assessed as percent of control at 50000 nM by qPCR analysis relative to control; set-up: scale not given: the % may be the effect or the level left
[5] = system: Serine/threonine-protein kinase B-raf (Homo sapiens), P15056 [V600E]; assay: Inhibition of DNA-tagged human BRAF V600E mutant assessed as percent of control at 50000 nM by qPCR analysis relative to control; set-up: scale not given: the % may be the effect or the level left
[6] = biological target: Casein kinase I isoform gamma-2 (Homo sapiens) (UniProt P78368); assay: Inhibition of DNA-tagged human CSNK1G2 assessed as percent of control at 50000 nM by qPCR analysis relative to control; set-up: scale not given: the % may be the effect or the level left
Chain of Casein kinase I isoform gamma-2 (Homo sapiens) (P78368 whole entry, looked up, canonical isoform): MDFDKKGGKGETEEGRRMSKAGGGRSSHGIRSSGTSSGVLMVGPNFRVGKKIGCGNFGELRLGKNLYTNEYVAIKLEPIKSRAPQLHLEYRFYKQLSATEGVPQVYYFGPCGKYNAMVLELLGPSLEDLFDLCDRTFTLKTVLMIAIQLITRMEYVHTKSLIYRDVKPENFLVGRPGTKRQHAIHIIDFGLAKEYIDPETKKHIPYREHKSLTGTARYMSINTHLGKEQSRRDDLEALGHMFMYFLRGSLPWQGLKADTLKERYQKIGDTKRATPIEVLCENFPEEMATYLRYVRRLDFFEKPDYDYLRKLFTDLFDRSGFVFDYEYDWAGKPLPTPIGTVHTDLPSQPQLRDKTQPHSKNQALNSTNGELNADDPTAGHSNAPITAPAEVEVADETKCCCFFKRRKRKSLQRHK

[7] = system: Leucine-rich repeat serine/threonine-protein kinase 2 (Homo sapiens), Q5S007 [G2019S]; assay: Inhibition of DNA-tagged human LRRK2 G2019S mutant assessed as percent of control at 50000 nM by qPCR analysis relative to control; set-up: scale not given: the % may be the effect or the level left
[8] = biological target: SRSF protein kinase 3 (Homo sapiens) (UniProt Q9UPE1); assay: Inhibition of DNA-tagged human SRPK3 assessed as percent of control at 50000 nM by qPCR analysis relative to control; set-up: scale not given: the % may be the effect or the level left
[9] = biological target: Phosphatidylinositol 4-kinase beta (Homo sapiens) (UniProt Q9UBF8); assay: Inhibition of DNA-tagged human PIK4CB assessed as percent of control at 50000 nM by qPCR analysis relative to control; set-up: scale not given: the % may be the effect or the level left
[10] = biological target: Homeodomain-interacting protein kinase 1 (Homo sapiens) (UniProt Q86Z02); assay: Inhibition of DNA-tagged human HIPK1 assessed as percent of control at 50000 nM by qPCR analysis relative to control; set-up: scale not given: the % may be the effect or the level left
[11] = biological target: Serine/threonine-protein kinase 38-like (Homo sapiens) (UniProt Q9Y2H1); assay: Inhibition of DNA-tagged human NDR2 assessed as percent of control at 50000 nM by qPCR analysis relative to control; set-up: scale not given: the % may be the effect or the level left
[12] = biological target: Phosphatidylinositol 4,5-bisphosphate 3-kinase catalytic subunit gamma isoform (Homo sapiens) (UniProt P48736); assay: Inhibition of DNA-tagged human PIK3CG assessed as percent of control at 50000 nM by qPCR analysis relative to control; set-up: scale not given: the % may be the effect or the level left
[13] = biological target: NUAK family SNF1-like kinase 1 (Homo sapiens) (UniProt O60285); assay: Inhibition of DNA-tagged human ARK5 assessed as percent of control at 50000 nM by qPCR analysis relative to control; set-up: scale not given: the % may be the effect or the level left
Chain of NUAK family SNF1-like kinase 1 (Homo sapiens) (O60285 whole entry): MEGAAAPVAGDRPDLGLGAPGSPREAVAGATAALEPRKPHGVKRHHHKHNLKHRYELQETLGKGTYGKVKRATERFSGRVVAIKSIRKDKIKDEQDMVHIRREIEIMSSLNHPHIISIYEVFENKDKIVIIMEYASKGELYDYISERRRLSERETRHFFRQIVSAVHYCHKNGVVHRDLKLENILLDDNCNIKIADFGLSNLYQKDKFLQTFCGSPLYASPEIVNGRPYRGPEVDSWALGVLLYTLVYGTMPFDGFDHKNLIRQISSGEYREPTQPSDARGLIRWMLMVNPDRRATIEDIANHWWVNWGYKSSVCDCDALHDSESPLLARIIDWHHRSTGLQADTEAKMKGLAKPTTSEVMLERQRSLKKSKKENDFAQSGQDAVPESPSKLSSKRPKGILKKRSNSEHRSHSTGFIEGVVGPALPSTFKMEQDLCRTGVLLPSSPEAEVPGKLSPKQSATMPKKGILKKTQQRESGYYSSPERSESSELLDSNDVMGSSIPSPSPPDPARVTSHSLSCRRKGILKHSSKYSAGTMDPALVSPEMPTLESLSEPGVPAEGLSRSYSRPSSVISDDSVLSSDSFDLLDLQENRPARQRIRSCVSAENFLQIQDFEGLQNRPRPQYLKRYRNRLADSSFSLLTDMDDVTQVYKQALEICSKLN

[14] = biological target: Serine/threonine-protein kinase DCLK2 (Homo sapiens) (UniProt Q8N568); assay: Inhibition of DNA-tagged human DCAMKL2 assessed as percent of control at 50000 nM by qPCR analysis relative to control; set-up: scale not given: the % may be the effect or the level left
[15] = biological target: Ephrin type-A receptor 3 (Homo sapiens) (UniProt P29320); assay: Inhibition of DNA-tagged human EPHA3 assessed as percent of control at 50000 nM by qPCR analysis relative to control; set-up: scale not given: the % may be the effect or the level left
Chain of Ephrin type-A receptor 3 (Homo sapiens) (P29320 whole entry): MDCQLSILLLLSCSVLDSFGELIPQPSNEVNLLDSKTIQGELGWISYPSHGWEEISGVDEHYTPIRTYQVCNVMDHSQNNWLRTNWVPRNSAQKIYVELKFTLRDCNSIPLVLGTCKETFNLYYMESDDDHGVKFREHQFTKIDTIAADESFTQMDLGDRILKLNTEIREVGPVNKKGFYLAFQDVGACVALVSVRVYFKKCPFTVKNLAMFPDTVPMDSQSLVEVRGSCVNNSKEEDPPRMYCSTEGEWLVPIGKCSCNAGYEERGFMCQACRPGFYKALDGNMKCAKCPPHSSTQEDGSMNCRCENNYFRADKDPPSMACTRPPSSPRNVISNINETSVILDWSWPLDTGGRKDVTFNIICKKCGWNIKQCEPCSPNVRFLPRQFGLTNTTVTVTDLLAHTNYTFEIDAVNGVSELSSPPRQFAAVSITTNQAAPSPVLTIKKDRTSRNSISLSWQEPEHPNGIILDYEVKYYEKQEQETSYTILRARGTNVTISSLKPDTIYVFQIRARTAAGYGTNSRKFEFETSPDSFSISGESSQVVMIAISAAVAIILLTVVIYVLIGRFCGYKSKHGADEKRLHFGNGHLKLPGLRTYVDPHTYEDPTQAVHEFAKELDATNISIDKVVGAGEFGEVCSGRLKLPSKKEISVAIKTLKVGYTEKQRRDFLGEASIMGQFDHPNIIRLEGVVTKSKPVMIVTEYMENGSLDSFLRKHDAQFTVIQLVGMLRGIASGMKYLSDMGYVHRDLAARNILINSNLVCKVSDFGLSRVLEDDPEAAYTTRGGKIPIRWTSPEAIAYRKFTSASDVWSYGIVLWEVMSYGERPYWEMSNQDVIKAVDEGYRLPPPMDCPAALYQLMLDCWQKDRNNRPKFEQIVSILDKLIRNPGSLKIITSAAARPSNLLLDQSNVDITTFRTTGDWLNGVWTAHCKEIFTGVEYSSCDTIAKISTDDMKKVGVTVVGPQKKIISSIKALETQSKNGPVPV

[16] = biological target: AP2-associated protein kinase 1 (Homo sapiens) (UniProt Q2M2I8); assay: Inhibition of DNA-tagged human AAK1 assessed as percent of control at 50000 nM by qPCR analysis relative to control; set-up: scale not given: the % may be the effect or the level left
Chain of AP2-associated protein kinase 1 (Homo sapiens) (Q2M2I8 whole entry, looked up): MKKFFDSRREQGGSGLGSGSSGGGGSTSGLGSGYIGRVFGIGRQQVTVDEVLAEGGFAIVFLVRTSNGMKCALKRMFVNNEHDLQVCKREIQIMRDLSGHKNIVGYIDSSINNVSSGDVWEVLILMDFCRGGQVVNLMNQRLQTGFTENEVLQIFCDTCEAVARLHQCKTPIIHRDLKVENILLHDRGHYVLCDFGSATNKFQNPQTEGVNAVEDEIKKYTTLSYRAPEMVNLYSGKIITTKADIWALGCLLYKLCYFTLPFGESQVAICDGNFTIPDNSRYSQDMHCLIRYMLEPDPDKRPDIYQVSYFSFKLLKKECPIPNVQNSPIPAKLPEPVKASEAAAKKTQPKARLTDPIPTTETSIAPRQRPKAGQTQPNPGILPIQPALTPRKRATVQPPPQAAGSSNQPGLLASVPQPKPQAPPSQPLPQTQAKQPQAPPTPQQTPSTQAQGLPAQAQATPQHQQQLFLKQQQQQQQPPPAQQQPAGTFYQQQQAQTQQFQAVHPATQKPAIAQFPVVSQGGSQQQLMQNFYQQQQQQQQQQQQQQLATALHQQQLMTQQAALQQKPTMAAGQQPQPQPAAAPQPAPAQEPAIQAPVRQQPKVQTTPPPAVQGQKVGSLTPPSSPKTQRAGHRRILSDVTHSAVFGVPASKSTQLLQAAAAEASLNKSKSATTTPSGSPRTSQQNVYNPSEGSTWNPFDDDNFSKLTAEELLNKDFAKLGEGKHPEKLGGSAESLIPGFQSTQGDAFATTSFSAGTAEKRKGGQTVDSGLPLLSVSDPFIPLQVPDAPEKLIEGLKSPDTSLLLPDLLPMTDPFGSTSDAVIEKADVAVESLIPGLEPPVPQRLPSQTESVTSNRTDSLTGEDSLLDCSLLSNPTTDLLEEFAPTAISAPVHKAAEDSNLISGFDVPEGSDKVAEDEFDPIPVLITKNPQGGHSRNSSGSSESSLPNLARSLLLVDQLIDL

[17] = biological target: Receptor-type tyrosine-protein kinase FLT3 (Homo sapiens) (UniProt P36888); assay: Inhibition of DNA-tagged human FLT3 assessed as percent of control at 50000 nM by qPCR analysis relative to control; set-up: scale not given: the % may be the effect or the level left
Chain of Receptor-type tyrosine-protein kinase FLT3 (Homo sapiens) (P36888 whole entry): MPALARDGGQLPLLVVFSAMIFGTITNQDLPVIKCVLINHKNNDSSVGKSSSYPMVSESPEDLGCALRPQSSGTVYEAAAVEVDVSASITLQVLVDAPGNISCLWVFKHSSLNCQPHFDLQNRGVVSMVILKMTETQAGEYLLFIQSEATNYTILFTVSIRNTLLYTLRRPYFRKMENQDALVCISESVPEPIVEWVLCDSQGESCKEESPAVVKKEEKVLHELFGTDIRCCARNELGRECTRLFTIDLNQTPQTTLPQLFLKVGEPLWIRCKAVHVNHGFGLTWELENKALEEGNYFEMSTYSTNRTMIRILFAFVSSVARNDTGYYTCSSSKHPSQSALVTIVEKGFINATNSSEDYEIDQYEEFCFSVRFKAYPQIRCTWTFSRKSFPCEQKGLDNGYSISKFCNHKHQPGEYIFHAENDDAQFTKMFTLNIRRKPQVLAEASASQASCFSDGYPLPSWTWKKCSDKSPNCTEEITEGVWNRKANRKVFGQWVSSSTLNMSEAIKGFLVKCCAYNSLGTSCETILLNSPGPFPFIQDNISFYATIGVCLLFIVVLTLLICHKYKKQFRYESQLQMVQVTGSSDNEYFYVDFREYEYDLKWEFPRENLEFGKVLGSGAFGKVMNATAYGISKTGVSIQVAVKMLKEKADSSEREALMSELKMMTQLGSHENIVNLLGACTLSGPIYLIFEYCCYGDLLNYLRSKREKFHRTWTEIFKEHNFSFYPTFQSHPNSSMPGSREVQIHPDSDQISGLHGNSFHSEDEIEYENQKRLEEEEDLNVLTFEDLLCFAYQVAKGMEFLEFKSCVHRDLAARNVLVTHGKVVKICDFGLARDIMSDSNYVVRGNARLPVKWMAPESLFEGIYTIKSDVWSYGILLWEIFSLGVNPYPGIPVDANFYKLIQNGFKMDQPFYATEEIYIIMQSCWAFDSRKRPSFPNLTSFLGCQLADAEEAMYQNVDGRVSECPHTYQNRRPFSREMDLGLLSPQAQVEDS

[18] = biological target: Homeodomain-interacting protein kinase 3 (Homo sapiens) (UniProt Q9H422); assay: Inhibition of DNA-tagged human HIPK3 assessed as percent of control at 50000 nM by qPCR analysis relative to control; set-up: scale not given: the % may be the effect or the level left
[19] = biological target: Tyrosine-protein kinase BTK (Homo sapiens) (UniProt Q06187); assay: Inhibition of DNA-tagged human BTK assessed as percent of control at 50000 nM by qPCR analysis relative to control; set-up: scale not given: the % may be the effect or the level left
[20] = biological target: Serine/threonine-protein kinase Chk1 (Homo sapiens) (UniProt O14757); assay: Inhibition of DNA-tagged human CHEK1 assessed as percent of control at 50000 nM by qPCR analysis relative to control; set-up: scale not given: the % may be the effect or the level left
[21] = biological target: Serine/threonine-protein kinase B-raf (Homo sapiens) (UniProt P15056); assay: Inhibition of DNA-tagged human BRAF assessed as percent of control at 50000 nM by qPCR analysis relative to control; set-up: scale not given: the % may be the effect or the level left
[22] = biological target: Phosphorylase b kinase gamma catalytic chain, liver/testis isoform (Homo sapiens) (UniProt P15735); assay: Inhibition of DNA-tagged human PHKG2 assessed as percent of control at 50000 nM by qPCR analysis relative to control; set-up: scale not given: the % may be the effect or the level left
[23] = biological target: TRAF2 and NCK-interacting protein kinase (Homo sapiens) (UniProt Q9UKE5); assay: Inhibition of DNA-tagged human TNIK assessed as percent of control at 50000 nM by qPCR analysis relative to control; set-up: scale not given: the % may be the effect or the level left
[24] = biological target: BDNF/NT-3 growth factors receptor (Homo sapiens) (UniProt Q16620); assay: Inhibition of DNA-tagged human TRKB assessed as percent of control at 50000 nM by qPCR analysis relative to control; set-up: scale not given: the % may be the effect or the level left
[25] = biological target: Dual specificity testis-specific protein kinase 1 (Homo sapiens) (UniProt Q15569); assay: Inhibition of DNA-tagged human TESK1 assessed as percent of control at 50000 nM by qPCR analysis relative to control; set-up: scale not given: the % may be the effect or the level left
[26] = biological target: Angiopoietin-1 receptor (Homo sapiens) (UniProt Q02763); assay: Inhibition of DNA-tagged human TIE2 assessed as percent of control at 50000 nM by qPCR analysis relative to control; set-up: scale not given: the % may be the effect or the level left
[27] = biological target: Wee1-like protein kinase 2 (Homo sapiens) (UniProt P0C1S8); assay: Inhibition of DNA-tagged human WEE2 assessed as percent of control at 50000 nM by qPCR analysis relative to control; set-up: scale not given: the % may be the effect or the level left
Chain of Wee1-like protein kinase 2 (Homo sapiens) (P0C1S8 whole entry, looked up): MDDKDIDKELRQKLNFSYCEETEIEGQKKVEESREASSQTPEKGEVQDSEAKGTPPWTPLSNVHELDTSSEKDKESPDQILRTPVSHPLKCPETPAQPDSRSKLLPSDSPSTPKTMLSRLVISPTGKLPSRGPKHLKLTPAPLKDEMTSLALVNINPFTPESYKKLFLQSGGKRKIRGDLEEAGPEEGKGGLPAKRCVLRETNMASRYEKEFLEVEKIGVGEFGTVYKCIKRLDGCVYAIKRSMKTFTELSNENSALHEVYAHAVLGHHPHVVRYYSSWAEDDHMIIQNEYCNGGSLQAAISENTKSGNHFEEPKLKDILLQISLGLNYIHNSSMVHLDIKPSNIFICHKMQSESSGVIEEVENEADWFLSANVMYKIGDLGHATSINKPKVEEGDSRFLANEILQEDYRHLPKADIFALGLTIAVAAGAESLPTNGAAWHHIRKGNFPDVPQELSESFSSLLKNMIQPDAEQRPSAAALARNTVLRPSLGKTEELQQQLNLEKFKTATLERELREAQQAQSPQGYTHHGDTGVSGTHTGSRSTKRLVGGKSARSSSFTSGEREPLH

[28] = biological target: Serine/threonine-protein kinase Chk2 (Homo sapiens) (UniProt O96017); assay: Inhibition of DNA-tagged human CHEK2 assessed as percent of control at 50000 nM by qPCR analysis relative to control; set-up: scale not given: the % may be the effect or the level left
[29] = biological target: Serine/threonine-protein kinase PAK 5 (Homo sapiens) (UniProt Q9P286); assay: Inhibition of DNA-tagged human PAK7 assessed as percent of control at 50000 nM by qPCR analysis relative to control; set-up: scale not given: the % may be the effect or the level left

Structure (SMILES): CN1C(=O)/C(=C2/C(=O)Nc3ccccc32)c2ccccc21
- Activity [1]: 100%
- Activity [2]: 100%
- Activity (HEL): Active
- Activity [3]: 80%
- Activity [4]: 56%
- Activity [5]: 72%
- Activity [6]: 93%
- Activity [7]: 74%
- Activity [8]: 100%
- Activity [9]: 100%
- Activity [10]: 83%
- Activity [11]: 100%
- Activity [12]: 100%
- Activity [13]: 85%
- Activity [14]: 93%
- Activity [15]: 91%
- Activity [16]: 91%
- Activity [17]: 79%
- Activity [18]: 80%
- Activity [19]: 82%
- Activity [20]: 100%
- Activity [21]: 84%
- Activity [22]: 100%
- Activity [23]: 100%
- Activity [24]: 88%
- Activity [25]: 100%
- Activity [26]: 100%
- Activity [27]: 95%
- Activity [28]: 100%
- Activity [29]: 98%
